Patent US9221791B2, “Metalloenzyme inhibitor compounds” (Viamet Pharmaceuticals, Inc., priority 2011, dated 2015)
In brackets after ≈: the same amount, converted by molar mass.

test system: Septoria tritici (ATCC 26517); assay: Minimum Inhibitory Concentration (MIC) (Septoria tritici), CLSI-based microdilution; type: cell-based; settings: S. tritici ATCC 26517; 22° C. for seven days; 50% reduction in growth
Experimental: C. Minimum Inhibitory Concentration (MIC) (Septoria tritici)
Compounds of the present disclosure were assessed for their ability to inhibit the growth of a common strain of the fungal plant pathogen Septoria tritici (ATCC 26517) using a procedure based on a Clinical and Laboratory Standards Institute (CLSI) microdilution assay protocol for filamentous fungi.
Stock solutions of the test compounds and standards were prepared in DMSO at 6400 μg/mL. Each stock solution was used to prepare a 2-fold dilution series ranging from 16 to 0.016 μg/mL (total of 11 compound concentrations) in RPMI-1640 (Roswell Park Memorial Institute) medium containing 3-(N-morpholino)propanesulfonic acid (MOPS) buffer and 2% DMSO. A 100 μL aliquot of the dilutions was added to columns 1 (16 μg/mL compound) through 11 (0.016 μg/mL compound) of a 96-well microtiter plate. This format was replicated in a second row of the microtiter plate. Thus, each microtiter plate could include 11 concentrations of four test or control compounds replicated twice. A 100 μL aliquot of RPMI-1640/MOPS/2% DMSO medium was added to column 12 (no compound control) of the microtiter plate.
A fresh culture of S. tritici was used to prepare a solution of approximately 5×10^4 colony-forming units per milliliter (cfu/mL) in RPMI/MOPS medium without DMSO. A 100 µL aliquot of this solution was added to all 96 wells in the microtiter plate. […] The assay plates were incubated at 22° C. for seven days in the dark without shaking.
In each case of Table 3 the Septoria rating scale is as follows: […]

| Septoria Rating (MIC) | Structure (SMILES) |
| --- | --- |
| C (>1.5-4) | CC(F)(c1ccc(Br)cn1)C(O)(Cn1cnnn1)c1ccc(F)cc1F (stereo not drawn) [Compound 85, 3-(5-Bromopyridin-2-yl)-2-(2,4-difluorophenyl)-3-fluoro-1-(1H-tetrazol-1-yl)butan-2-ol] |

same assay, conditions: Zymoseptoria tritici, ATCC26517, 168 h, S. tritici ATCC 26517; 22° C. for seven days; 50% reduction in growth; read-out: Septoria Rating (MIC)

| Structure (SMILES) | MIC |
| --- | --- |
| OC(Cc1cncs1)(c1ccc(F)cc1F)C(F)(F)c1ccccn1 (stereo not drawn) [Compound 86, 2-(2,4-Difluorophenyl)-1,1-difluoro-1-(pyridin-2-yl)-3-(thiazol-5-yl)propan-2-ol] | ≤ 0.5 µg/mL |
| OC(Cn1cnnn1)(c1ccc(F)cc1F)C(F)(F)c1ccc(-c2ccc(Br)s2)cn1 (stereo not drawn) [Compound 78, 1-(5-(5-Bromothiophen-2-yl)pyridin-2-yl)-2-(2,4-difluorophenyl)-1,1-difluoro-3-(1H-tetrazol-1-yl)propan-2-ol] | ≤ 0.5 µg/mL |
| OC(c1ccc(C(F)(F)C(O)(Cn2cnnn2)c2ccc(F)cc2F)nc1)C(F)(F)F (stereo not drawn) [Compound 56, (2-(2,4-Difluorophenyl)-1,1-difluoro-3-(1H-tetrazol-1-yl)-1-(5-(2,2,2-trifluoro-1-hydroxyethyl)pyridin-2-yl)propan-2-ol)] | > 4 µg/mL |
| C=CCc1ccc(C(F)(F)C(O)(Cn2cnnn2)c2ccc(F)cc2F)nc1 (stereo not drawn) [Compound 61, 1-(5-Allylpyridin-2-yl)-2-(2,4-difluorophenyl)-1,1-difluoro-3-(1H-tetrazol-1-yl)propan-2-ol] | 1.5 to 4 µg/mL (≈ 3.81 to 10.2 µM) |
| OC(Cn1cnnn1)(c1ccc(F)cc1F)C(F)(F)c1cc(Br)ccn1 (stereo not drawn) [Compound 24, 1-(4-Bromopyridin-2-yl)-2-(2,4-difluorophenyl)-1,1-difluoro-3-(1H-tetrazol-1-yl)propan-2-ol] | 1.5 to 4 µg/mL (≈ 3.47 to 9.26 µM) |
| COCCCc1ccc(C(F)(F)C(O)(Cn2cnnn2)c2ccc(F)cc2F)nc1 (stereo not drawn) [Compound 50, 2-(2,4-Difluorophenyl)-1,1-difluoro-1-(5-(3-methoxypropyl)pyridin-2-yl)-3-(1H-tetrazol-1-yl)propan-2-ol] | 1.5 µg/mL (≈ 3.53 µM) |
| OC(Cn1cnnn1)(c1ccc(F)cc1F)C(F)(F)c1cccc(Br)n1 (stereo not drawn) [Compound 20, 1-(6-Bromopyridin-2-yl)-2-(2,4-difluorophenyl)-1,1-difluoro-3-(1H-tetrazol-1-yl)propan-2-ol] | 1.5 to 4 µg/mL (≈ 3.47 to 9.26 µM) |
| COc1ncc(-c2ccc(C(F)(F)C(O)(Cn3cnnn3)c3ccc(F)cc3F)nc2)cn1 (stereo not drawn) [Compound 37, 2-(2,4-Difluorophenyl)-1,1-difluoro-1-(5-(2-methoxypyrimidin-5-yl)pyridin-2-yl)-3-(1H-tetrazol-1-yl)propan-2-ol] | 1.5 to 4 µg/mL (≈ 3.25 to 8.67 µM) |
| CC(F)(c1ccc(Br)cn1)C(O)(Cn1cnnn1)c1ccc(F)cc1F (stereo not drawn) [Compound 84, 3-(5-Bromopyridin-2-yl)-2-(2,4-difluorophenyl)-3-fluoro-1-(1H-tetrazol-1-yl)butan-2-ol] | 1.5 µg/mL (≈ 3.5 µM) |
| CC(C)OCCCc1ccc(C(F)(F)C(O)(Cn2cnnn2)c2ccc(F)cc2F)nc1 (stereo not drawn) [Compound 55, 2-(2,4-Difluorophenyl)-1,1-difluoro-1-(5-(3-isopropoxypropyl)pyridin-2-yl)-3-(1H-tetrazol-1-yl)propan-2-ol] | ≤ 0.5 µg/mL |
| CCOC(=O)CCc1ccc(C(F)(F)C(O)(Cn2cnnn2)c2ccc(F)cc2F)nc1 (stereo not drawn) [Compound 5, Ethyl 3-(6-(2-(2,4-difluorophenyl)-1,1-difluoro-2-hydroxy-3-(1H-tetrazol-1-yl)propyl)pyridin-3-yl)propanoate] | ≤ 0.5 µg/mL |
| CC(=O)CCc1ccc(C(F)(F)C(O)(Cn2cnnn2)c2ccc(F)cc2F)nc1 (stereo not drawn) [Compound 8, 4-(6-(2-(2,4-Difluorophenyl)-1,1-difluoro-2-hydroxy-3-(1H-tetrazol-1-yl)propyl)pyridin-3-yl)butan-2-one] | 1.5 µg/mL (≈ 3.54 µM) |
| CC(O)CCc1ccc(C(F)(F)C(O)(Cn2cnnn2)c2ccc(F)cc2F)nc1 (stereo not drawn) [Compound 47, 4-(6-(2-(2,4-Difluorophenyl)-1,1-difluoro-2-hydroxy-3-(1H-tetrazol-1-yl)propyl)pyridin-3-yl)butan-2-ol] | 1.5 to 4 µg/mL (≈ 3.53 to 9.4 µM) |
| OC(Cn1cnnn1)(c1ccc(F)cc1F)C(F)(F)c1ccc(C(F)(F)F)cn1 (stereo not drawn) [Compound 19, 2-(2,4-Difluorophenyl)-1,1-difluoro-3-(1H-tetrazol-1-yl)-1-(5-(trifluoromethyl)pyridin-2-yl)propan-2-ol] | 1.5 to 4 µg/mL (≈ 3.56 to 9.49 µM) |
| OCCCc1ccc(C(F)(F)C(O)(Cn2cnnn2)c2ccc(F)cc2F)nc1 (stereo not drawn) [Compound 44, 3-(6-(2-(2,4-Difluorophenyl)-1,1-difluoro-2-hydroxy-3-(1H-tetrazol-1-yl)propyl)pyridin-3-yl)propan-1-ol] | 1.5 to 4 µg/mL (≈ 3.65 to 9.72 µM) |
| OC(Cc1cc[nH]n1)(c1ccc(F)cc1F)C(F)(F)c1ccc(Br)cn1 (stereo not drawn) [Compound 62, 1-(5-Bromopyridin-2-yl)-2-(2,4-difluorophenyl)-1,1-difluoro-3-(1H-pyrazol-3-yl)propan-2-ol] | ≤ 0.5 µg/mL |
| OC(Cn1cnnn1)(c1ccc(F)cc1F)C(F)(F)c1cc(Cl)ccn1 (stereo not drawn) [Compound 14, 1-(4-Chloropyridin-2-yl)-2-(2,4-difluorophenyl)-1,1-difluoro-3-(1H-tetrazol-1-yl)propan-2-ol] | 1.5 to 4 µg/mL (≈ 3.87 to 10.3 µM) |

The remaining lines, values ahead:

| MIC | Structure (SMILES) |
| --- | --- |
| 1.5 µg/mL (≈ 3.54 µM) | COC/C=C/c1ccc(C(F)(F)C(O)(Cn2cnnn2)c2ccc(F)cc2F)nc1 (stereo not drawn) [Compound 48, (E)-2-(2,4-Difluorophenyl)-1,1-difluoro-1-(5-(3-methoxyprop-1-en-1-yl)pyridin-2-yl)-3-(1H-tetrazol-1-yl)propan-2-ol] |
| ≤ 0.5 µg/mL | COC/C=C\c1ccc(C(F)(F)C(O)(Cn2cnnn2)c2ccc(F)cc2F)nc1 (stereo not drawn) [Compound 49, (Z)-2-(2,4-Difluorophenyl)-1,1-difluoro-1-(5-(3-methoxyprop-1-en-1-yl)pyridin-2-yl)-3-(1H-tetrazol-1-yl)propan-2-ol] |
| 1.5 µg/mL (≈ 4.04 µM) | OC(Cn1cnnn1)(c1ccc(F)cc1F)C(F)(F)c1cc(F)ccn1 (single isomer, unassigned) [ent-13, 2-(2,4-Difluorophenyl)-1,1-difluoro-1-(4-fluoropyridin-2-yl)-3-(1H-tetrazol-1-yl)propan-2-ol] |
| > 4 µg/mL | N#Cc1ccc(OCc2ccc(C(F)(F)C(O)(Cn3ncnn3)c3ccc(F)cc3F)nc2)cc1 (stereo not drawn) [Compound 80, 4-((6-(2-(2,4-Difluorophenyl)-1,1-difluoro-2-hydroxy-3-(2H-tetrazol-2-yl)propyl)pyridin-3-yl)methoxy)benzonitrile] |
| > 4 µg/mL | OC(Cn1cnnn1)(c1cc(F)ccc1F)C(F)(F)c1ccc(Br)cn1 (stereo not drawn) [Compound 21, 1-(5-Bromopyridin-2-yl)-2-(2,5-difluorophenyl)-1,1-difluoro-3-(1H-tetrazol-1-yl)propan-2-ol] |
| 1.5 µg/mL (≈ 3.53 µM) | CC(C)OCc1ccc(C(F)(F)C(O)(Cn2cnnn2)c2ccc(F)cc2F)nc1 (stereo not drawn) [Compound 91, 2-(2,4-difluorophenyl)-1,1-difluoro-1-(5-(isopropoxymethyl)pyridin-2-yl)-3-(1H-tetrazol-1-yl)propan-2-ol] |
| 1.5 to 4 µg/mL (≈ 3.56 to 9.49 µM) | CC(=O)/C=C/c1ccc(C(F)(F)C(O)(Cn2cnnn2)c2ccc(F)cc2F)nc1 (stereo not drawn) [Compound 7, (E)-4-(6-(2-(2,4-Difluorophenyl)-1,1-difluoro-2-hydroxy-3-(1H-tetrazol-1-yl)propyl)pyridin-3-yl)but-3-en-2-one] |
| 1.5 to 4 µg/mL (≈ 4.27 to 11.4 µM) | OC(Cc1cn[nH]c1)(c1ccc(F)cc1F)C(F)(F)c1ccccn1 (stereo not drawn) [Compound 65, 2-(2,4-Difluorophenyl)-1,1-difluoro-3-(1H-pyrazol-4-yl)-1-(pyridin-2-yl)propan-2-ol] |
| 1.5 to 4 µg/mL (≈ 3.11 to 8.3 µM) | OC(Cn1cnnn1)(c1ccc(C(F)(F)F)cc1F)C(F)(F)c1ccc(Br)cn1 (stereo not drawn) [Compound 23, 1-(5-Bromopyridin-2-yl)-1,1-difluoro-2-(2-fluoro-4-(trifluoromethyl)phenyl)-3-(1H-tetrazol-1-yl)propan-2-ol] |
